Laboratory results published in ChEMBL document CHEMBL1129156, “Oreganic acid: a potent novel inhibitor of ras farnesyl-protein transferase from an endophytic fungus” (Bioorg Med Chem Lett, 1996).
The source made the active and inactive calls.

How the values were obtained:
Assay type in all cases: protein-complex assay
[1] = biological target: T1, Protein farnesyltransferase (Homo sapiens, UniProt P49354+P49356); assay: In vitro inhibition of human recombinant Protein farnesyltransferase
[2] = biological target: T1, Protein farnesyltransferase; assay: In vitro inhibition of human recombinant Protein farnesyltransferase at 20 uM (Inactive)
[3] = biological target: T1, Protein farnesyltransferase; assay: In vitro inhibition of human recombinant Protein farnesyltransferase with respect to FPP

Row | Compound | IC50 [1] | Activity [2] | Ki [3]
1 | O=C(O)C/C(C(=O)O)=C(/CCCCCCCCCCCCCCCCO)C(=O)O | 3.3 nM |  | 
2 | COC(=O)C/C(C(=O)OC)=C(/CCCCCCCCCCCCCCCCOS(=O)(=O)O)C(=O)OC | 10.6 nM |  | 
3 | COC(=O)C/C(C(=O)OC)=C(/CCCCCCCCCCCCCCCCO)C(=O)OC |  | inactive | 
4 | O=C(O)C/C(C(=O)O)=C(/CCCCCCCCCCCCCCCCOS(=O)(=O)O)C(=O)O | 14 nM |  | 4.5 nM
